Where “and” joins values, the source holds several entries; their conditions need not be identical. Equal values may be shown once.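 These data come from cells grown in 96-well plates and exposed to compound for 48 hours at five concentrations. GI50 = concentration required for 50% inhibition of growth. At the TGI there is no net growth.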

For the first experiment, the system named is RPMI-8226 leukemia. Kind of experiment: NCI-60 cell line screen, 48 h.
Consider `COc1cc2c(cc1OCCCCN1CCN(CC(=O)Nc3ccc(Cl)cc3C(=O)c3ccccc3Cl)CC1)N=CC1CCCN1C2=O` (stereo not drawn), for which the GI50 is 0.0573 µM and the TGI turned out to be 0.173 µM.

With `C[C@@H](Oc1cc(-n2cnc3ccc(CN4CCN(C)CC4)cc32)sc1C(N)=O)c1ccccc1C(F)(F)F`, the GI50 is 0.0546 µM and 0.0384 µM; the TGI is 13.6 µM and > 10 µM.

The subject of the next experiment is RXF 393 renal. The experiment in a line: NCI-60 cell line screen, 48 h.
As for `CCOC1Oc2ccccc2C(=O)/C1=C/Nc1ccc(C(C)=O)cc1` (stereo not drawn), the GI50 was 27 µM and the TGI amounted to 72.6 µM.

For `COC1/C=C/OC2(C)Oc3c(C)c(O)c4c(O)c(c(/C=N/Nc5ccc([N+](=O)[O-])cc5[N+](=O)[O-])c(O)c4c3C2=O)NC(=O)C(C)=C/C=C/C(C)C(O)C(C)C(O)C(C)C(OC(C)=O)C1C` (stereo not drawn), the GI50 was 0.899 µM and the TGI amounted to 1.66 µM.

In turn, `Cc1cc(NS(=O)(=O)c2ccc(Nc3c4ccccc4nc4c(C(=O)N5CCN(CCOS(C)(=O)=O)CC5)cccc34)cc2)no1` had a TGI of more than 100 µM.

For the compound `C=CCO[C@H]1CO[C@H]2[C@@H]1OC[C@@H]2Oc1ccc(Nc2ccnc(Nc3ccc(O[C@H]4CO[C@H]5[C@@H]4OC[C@@H]5OCC=C)c(Cl)c3)n2)cc1Cl`, the GI50 was 1.69 µM and the TGI worked out at 3.1 µM.

The compound `O=C(O)CCC(NC(=O)c1ccc(Nc2nc3ccccc3nc2-c2cccs2)cc1)C(=O)O` (stereo not drawn) returned a TGI of more than 100 µM.

For `COc1ccc2c(c1)sc1nc(-c3ccccc3)c(-c3cccc4ccccc34)n12`, the GI50 is 0.249 µM and the TGI was found to be 1.29 µM.

Consider `C[N+](C)(C)CC(=O)N/N=C(/CC(=O)CC(C1=C(O)c2ccccc2OC1)c1ccccc1)C(=O)Nc1cccc(Cl)c1` (stereo not drawn), for which the TGI was more than 100 µM.

With `CCN(CC)N=Nc1c(C(N)=O)n[nH]c1C`, the TGI is more than 100 µM.

`COc1cc2ccnc([C@@H](OC(=O)c3ccccc3)c3ccc(OC)c(OC)c3OC)c2cc1OC` returned a TGI of more than 100 µM.

Take `Cc1ccc(NC(=O)Nc2ccc(-c3cccnc3)cc2N2CCC(CO)CC2)cc1`: the GI50 is 2.18 µM and the TGI stood at 4.69 µM.

`O=C(O)CCNCCCNCCC(=O)O` registered a TGI of more than 100 µM.

For `CC(=O)[CH-]C(=O)c1ccccc1.CC(=O)[CH-]C(=O)c1ccccc1.CN(C)c1ccc([O-])cc1.CN(C)c1ccc([O-])cc1.Cl.[Ti+4]`, the GI50 is 27.3 µM and the TGI is more than 31.6 µM.

As for `NC1=NCCC1(c1ccccc1)c1ccccn1` (stereo not drawn), the TGI was more than 100 µM.

Compound `CCCCCCCCCCCC(=O)OCCOCCOCCOCCOCCOCc1ccccc1` had a TGI of more than 100 µM.

Regarding `CCCCCCCCCCCCCC(=O)OC(/C=C/C(C)C)C(O)C(O)C(OC)C(=O)NC1CCCCN(C)C1=O` (stereo not drawn), the GI50 is more than 49 µM; the TGI is 6.22 µM and > 49 µM.

In the case of `CCOC(=O)CCC1(C(=O)OCC)CCCCC1=O` (stereo not drawn), the TGI was more than 100 µM.

With `CCCC1C(=O)CCc2c(OC)ccc(OC)c21` (stereo not drawn), the TGI is more than 100 µM.

`NC(=O)NO.O.O.O.O.O.O.O.O.O.O.O.[Ge].[Ge].[Ge].[Ge].[Ge].[O]=[Ge].[O]=[Ge].[O]=[Ge].[O]=[Ge].[O]=[Ge][OH]` had a TGI of more than 100 µM.

For the compound `O=C(Nc1nc2ccc([N+](=O)[O-])cc2s1)C(=O)C(C1OC(=O)c2ccccc21)[N+](=O)[O-]` (stereo not drawn), the TGI was more than 100 µM.

Consider `COc1cc2cc(OC)c3cc4c(cc3c2c(OC)c1OC)OCO4`, for which the TGI was more than 100 µM.

Consider `COc1cc2c(cc1OCCCCN1CCN(CC(=O)Nc3ccc(Cl)cc3C(=O)c3ccccc3Cl)CC1)N=CC1CCCN1C2=O` (stereo not drawn), for which the GI50 was 0.186 µM and the TGI was 0.388 µM.

As for `C[C@@H](Oc1cc(-n2cnc3ccc(CN4CCN(C)CC4)cc32)sc1C(N)=O)c1ccccc1C(F)(F)F`, the GI50 was < 0.0141 µM and 0.0224 µM; the TGI was 10.2 µM and > 10 µM.

The next experiment relates to SK-MEL-2 melanoma. The experiment in a line: NCI-60 cell line screen, 48 h.
As to `CCOC1Oc2ccccc2C(=O)/C1=C/Nc1ccc(C(C)=O)cc1` (stereo not drawn), the GI50 was 40.1 µM and the TGI was more than 100 µM.

For `Cc1cc(NS(=O)(=O)c2ccc(Nc3c4ccccc4nc4c(C(=O)N5CCN(CCOS(C)(=O)=O)CC5)cccc34)cc2)no1`, the TGI was more than 100 µM.

On to `C=CCO[C@H]1CO[C@H]2[C@@H]1OC[C@@H]2Oc1ccc(Nc2ccnc(Nc3ccc(O[C@H]4CO[C@H]5[C@@H]4OC[C@@H]5OCC=C)c(Cl)c3)n2)cc1Cl`, for which the GI50 was 2.29 µM and the TGI was 5.31 µM.

For the compound `O=C(O)CCC(NC(=O)c1ccc(Nc2nc3ccccc3nc2-c2cccs2)cc1)C(=O)O` (stereo not drawn), the TGI was more than 100 µM.

For `COc1ccc2c(c1)sc1nc(-c3ccccc3)c(-c3cccc4ccccc34)n12`, the GI50 is 1.67 µM and the TGI was more than 100 µM.

Consider `C[N+](C)(C)CC(=O)N/N=C(/CC(=O)CC(C1=C(O)c2ccccc2OC1)c1ccccc1)C(=O)Nc1cccc(Cl)c1` (stereo not drawn), for which the TGI was more than 100 µM.

The compound `CCN(CC)N=Nc1c(C(N)=O)n[nH]c1C` showed a TGI of more than 100 µM.

Turning to `COc1cc2ccnc([C@@H](OC(=O)c3ccccc3)c3ccc(OC)c(OC)c3OC)c2cc1OC`, the TGI is more than 100 µM.

Take `Cc1ccc(NC(=O)Nc2ccc(-c3cccnc3)cc2N2CCC(CO)CC2)cc1`: the GI50 was 2.24 µM and the TGI amounted to 8.38 µM.

The compound `O=C(O)CCNCCCNCCC(=O)O` registered a TGI of more than 100 µM.

With `CC(=O)[CH-]C(=O)c1ccccc1.CC(=O)[CH-]C(=O)c1ccccc1.CN(C)c1ccc([O-])cc1.CN(C)c1ccc([O-])cc1.Cl.[Ti+4]`, the GI50 was more than 31.6 µM and the TGI is more than 31.6 µM.

`NC1=NCCC1(c1ccccc1)c1ccccn1` (stereo not drawn) had a TGI of more than 100 µM.

Consider `CCCCCCCCCCCC(=O)OCCOCCOCCOCCOCCOCc1ccccc1`, for which the TGI is more than 100 µM.

For `CCCCCCCCCCCCCC(=O)OC(/C=C/C(C)C)C(O)C(O)C(OC)C(=O)NC1CCCCN(C)C1=O` (stereo not drawn), the GI50 is more than 49 µM; the TGI was 9.12 µM and > 49 µM.

With `CCOC(=O)CCC1(C(=O)OCC)CCCCC1=O` (stereo not drawn), the TGI was more than 100 µM.

`CCCC1C(=O)CCc2c(OC)ccc(OC)c21` (stereo not drawn) showed a TGI of more than 100 µM.

`NC(=O)NO.O.O.O.O.O.O.O.O.O.O.O.[Ge].[Ge].[Ge].[Ge].[Ge].[O]=[Ge].[O]=[Ge].[O]=[Ge].[O]=[Ge].[O]=[Ge][OH]`: the TGI was more than 100 µM.

`O=C(Nc1nc2ccc([N+](=O)[O-])cc2s1)C(=O)C(C1OC(=O)c2ccccc21)[N+](=O)[O-]` (stereo not drawn) showed a TGI of more than 100 µM.

`COc1cc2cc(OC)c3cc4c(cc3c2c(OC)c1OC)OCO4` returned a TGI of more than 100 µM.

As for `COc1cc2c(cc1OCCCCN1CCN(CC(=O)Nc3ccc(Cl)cc3C(=O)c3ccccc3Cl)CC1)N=CC1CCCN1C2=O` (stereo not drawn), the GI50 was 0.288 µM and the TGI was found to be 0.869 µM.

The compound `C[C@@H](Oc1cc(-n2cnc3ccc(CN4CCN(C)CC4)cc32)sc1C(N)=O)c1ccccc1C(F)(F)F` yielded a TGI of more than 10 µM.

Source of the values: PubChem BioAssay (NCI).
